Results from patent publication US20130343993A1, “RADIOLABELED 5-HT6 LIGANDS” (AbbVie Inc., priority 2012, published 2013).
Where two headings read alike, the source gives them in different places.

Tests used:
5-HT2a = 5-HT2a (Homo sapiens, UniProt P28223); conditions: background statement on the known PET ligand; cited from earlier work
[1] = target: 78 targets (CEREP) other than the 5-HT6 receptor; experiment: CEREP panel of 78 targets; assay type: binding; conditions: all but the 5-HT2B and 5-HT2A receptors, read-out: Ki at ancillary targets
h-5-HT6 receptor = target: T1, h-5-HT6 receptor (Homo sapiens, UniProt P50406); experiment: 5-HT6 receptor binding assay ([3H]-LSD displacement, HEK293 membranes)
T1 construct: expressed in transfected cells
Method: The cells were collected by centrifugation at 500 g for 10 min. at 4° C., washed with PBS and centrifuged (500 g, 10 min. 4° C.). The pellets were stored at −80° C. until use. For membrane preparation, the thawed cell pellet was resuspended in ice-cold sucrose buffer (0.25 M sucrose, 10 mM Hepes (pH 7.4), 1 mM Phenylmethylsulfonyl fluoride (PMSF) in DMSO, […] Pepstatin-A, 3 mM EDTA, 0.025% Bacitracin) and homogenized with a Branson Sonifier W-250 (Settings: Timer 4; Output Control 3; Duty Cycle constant; 2 to 3 cycles). Cell disruption was checked with the aid of a microscope. Remaining unbroken cells were pelleted at 1,000 g for 10 min. at 4° C. […] Protein concentration was determined (BCA-Kit; Pierce) and aliquots stored at −80° C. or in liquid nitrogen for long-term storage.
(§1) All receptor binding experiments were carried out in the corresponding assay buffer in a total volume of 200 μl in the presence of various concentrations of test compound (10^−5 M to 10^−9 M, tenfold serial dilution, duplicate determinations). […] Radioactivity was measured in a Microbeta Trilux two hours after the addition of the scintillation mixture. […]
Data derived from liquid scintillation counting were analyzed by iterative non-linear regression analysis with the use of the Statistical Analysis System (SAS): a program similar to “LIGAND” as described by Munson and Rodbard (Anal. Biochem. 1980, 107, 220-239). […]

h-5-HT2A receptor = target: T2, h-5-HT2A receptor (Homo sapiens, UniProt P28223); experiment: 5-HT2A receptor binding assay ([125I]-DOI displacement, CHO-K1 membranes); conditions: for Selectivity for 5-HT6 v. 5-HT2A: ratio of human 5-HT2A Ki to human 5-HT6 Ki
T2 construct: purchased Perkin Elmer ES-313-M400UA; host or cells: CHO-K1
Method: Cells from stable clonal cell lines expressing the corresponding receptor (5-HT6, 5-HT2A or 5-HT2B receptors) were washed with PBS with 0.02% EDTA. The cells were collected by centrifugation at 500 g for 10 min. at 4° C., washed with PBS and centrifuged (500 g, 10 min. 4° C.). The pellets were stored at −80° C. until use. For membrane preparation, the thawed cell pellet was resuspended in ice-cold sucrose buffer (0.25 M sucrose, 10 mM Hepes (pH 7.4), 1 mM Phenylmethylsulfonyl fluoride (PMSF) in DMSO, […] Pepstatin-A, 3 mM EDTA, 0.025% Bacitracin) and homogenized with a Branson Sonifier W-250 (Settings: Timer 4; Output Control 3; Duty Cycle constant; 2 to 3 cycles). Cell disruption was checked with the aid of a microscope. Remaining unbroken cells were pelleted at 1,000 g for 10 min. at 4° C. The sucrose buffer supernatant was then centrifuged at 60,000 g for 1 h at 4° C. (Beckman Ultrazentrifuge XL 80). The pellet was resuspended in 30 ml ice-cold Tris buffer (20 mM TRIS (pH 7.4), […] Pepstatin A, 0.1 mM PMSF, 3 mM EDTA) by pipetting through a 10 ml serological pipet and centrifuged for 1 h at 4° C. at 60,000 g. A final resuspension was performed in a small volume of ice-cold Tris buffer (see above) by pressing through a serological pipet followed by ultrasonic treatment with a Branson Sonifier W-250 (Settings: Timer 1; Output Control 3; Duty Cycle constant; 1 cycle). Protein concentration was determined (BCA-Kit; Pierce) and aliquots stored at −80° C. or in liquid nitrogen for long-term storage.
All receptor binding experiments were carried out in the corresponding assay buffer in a total volume of 200 μl in the presence of various concentrations of test compound (10^−5 M to 10^−9 M, tenfold serial dilution, duplicate determinations). The assays were terminated by filtration on polyethylenimine (PEI 0.1% or 0.3%) presoaked Packard Unifilter Plates (GF/C or GF/B) with a Tomtec MachIII U 96well-plate harvester. After the plates had been dried for 2 h at 55° C. in a drying chamber scintillation cocktail (BetaPlate Scint; PerkinElmer) was added. Radioactivity was measured in a Microbeta Trilux two hours after the addition of the scintillation mixture. Data derived from liquid scintillation counting were analyzed by iterative non-linear regression analysis with the use of the Statistical Analysis System (SAS): a program similar to “LIGAND” as described by Munson and Rodbard (Analytical Biochemistry 107, 220-239 (1980).
CHO-K1 cell membranes expressing h-5-HT2A receptor (Perkin Elmer ES-313-M400UA) were thawed, diluted in assay buffer (50 mM Tris-HCl, 5 mM MgCl2, 1 mM EGTA, pH 7.4) to a final membrane protein concentration of 25 μg/ml and homogenized by gentle vortexing. For the competition binding studies; 20 μl of varying concentrations of test compounds in assay buffer (or 20 μl of assay buffer), 80 μl of 0.1 nM [^125I]—R—O-DOI (2,5-dimethoxy-4-iodo-amphetamine) (Perkin Elmer NEX-255) were incubated with 100 μl of homogenized membranes (total volume 200 μl). Non-specific binding was determined in the presence of 10 μM (±)-DOI (Sigma D-101). After a 1 hr incubation at room temperature, the binding reaction was harvested (Tomtec Mach III U Harvester) through 96-well GF/C filter plates (Perkin Elmer) presoaked for 1 hr with 20 μl per well of 0.3% polyethylene-imine (PEI). Harvested plates were washed twice with ice-cold assay buffer and dried prior to addition of 35 μl scintillator (BetaplateScint, Perkin Elmer). The radioactivity was determined by liquid scintillation spectrometry in a MicroBeta (Perkin Elmer) plate counter.
Data derived from liquid scintillation counting were analyzed by iterative non-linear regression analysis with the use of the Statistical Analysis System (SAS): a program similar to “LIGAND” as described by Munson and Rodbard (Anal. Biochem. 1980, 107, 220-239). Fitting was performed according to formulae described by Feldman (Anal. Biochem. 1972, 48, 317-338). […]

Rat microsome stability = assay type: in vitro ADME; conditions: rat microsomes, read-out: Rat microsome T1/2
h-5-HT2B receptor = target: T3, h-5-HT2B receptor (Homo sapiens, UniProt P41595); experiment: 5-HT2B receptor binding assay ([125I]-DOI displacement, CHO-K1 membranes)
T3 construct: purchased Perkin Elmer ES-314-M400UA; host or cells: CHO-K1
Method: Cells from stable clonal cell lines expressing the corresponding receptor (5-HT6, 5-HT2A or 5-HT2B receptors) were washed with PBS with 0.02% EDTA. The cells were collected by centrifugation at 500 g for 10 min. at 4° C., washed with PBS and centrifuged (500 g, 10 min. 4° C.). The pellets were stored at −80° C. until use. For membrane preparation, the thawed cell pellet was resuspended in ice-cold sucrose buffer (0.25 M sucrose, 10 mM Hepes (pH 7.4), 1 mM Phenylmethylsulfonyl fluoride (PMSF) in DMSO, […] Pepstatin-A, 3 mM EDTA, 0.025% Bacitracin) and homogenized with a Branson Sonifier W-250 (Settings: Timer 4; Output Control 3; Duty Cycle constant; 2 to 3 cycles). Cell disruption was checked with the aid of a microscope. Remaining unbroken cells were pelleted at 1,000 g for 10 min. at 4° C. The sucrose buffer supernatant was then centrifuged at 60,000 g for 1 h at 4° C. (Beckman Ultrazentrifuge XL 80). […] Protein concentration was determined (BCA-Kit; Pierce) and aliquots stored at −80° C. or in liquid nitrogen for long-term storage.
as §1

[2] = Rat PK (0.05 mg/kg, iv), plasma and brain levels; assay type: in vivo; conditions: for Free B/P Ratio: free brain concentration divided by free plasma concentration
Rat 5-HT6 = Rat 5-HT6 (Rattus norvegicus, UniProt P31388); experiment: Rat 5-HT6 binding
Rat 5-HT6, sequence (P31388 whole entry): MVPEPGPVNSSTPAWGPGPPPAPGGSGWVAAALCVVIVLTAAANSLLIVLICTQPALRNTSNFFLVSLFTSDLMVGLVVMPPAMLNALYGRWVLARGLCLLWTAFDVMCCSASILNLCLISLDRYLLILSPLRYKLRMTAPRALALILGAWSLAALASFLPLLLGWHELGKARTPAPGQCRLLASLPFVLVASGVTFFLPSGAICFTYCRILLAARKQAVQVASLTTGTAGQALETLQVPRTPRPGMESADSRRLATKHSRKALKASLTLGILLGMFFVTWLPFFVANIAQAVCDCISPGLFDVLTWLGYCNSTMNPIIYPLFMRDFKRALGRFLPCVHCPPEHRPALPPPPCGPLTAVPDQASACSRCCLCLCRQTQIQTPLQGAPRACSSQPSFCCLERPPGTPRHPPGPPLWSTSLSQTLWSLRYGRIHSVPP

T2 sequence (P28223 whole entry): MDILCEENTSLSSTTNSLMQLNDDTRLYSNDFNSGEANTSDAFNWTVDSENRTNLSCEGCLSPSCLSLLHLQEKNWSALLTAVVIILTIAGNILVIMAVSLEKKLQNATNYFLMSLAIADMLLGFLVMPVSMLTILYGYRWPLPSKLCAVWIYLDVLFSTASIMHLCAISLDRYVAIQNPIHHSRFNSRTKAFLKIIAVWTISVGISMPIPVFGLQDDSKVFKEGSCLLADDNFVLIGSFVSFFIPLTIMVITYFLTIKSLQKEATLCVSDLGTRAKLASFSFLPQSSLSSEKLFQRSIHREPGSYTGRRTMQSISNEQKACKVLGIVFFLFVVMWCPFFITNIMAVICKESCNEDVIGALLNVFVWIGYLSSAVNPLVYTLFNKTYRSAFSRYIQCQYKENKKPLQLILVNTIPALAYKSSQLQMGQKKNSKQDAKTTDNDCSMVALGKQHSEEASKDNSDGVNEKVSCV
T3 sequence (P41595 whole entry): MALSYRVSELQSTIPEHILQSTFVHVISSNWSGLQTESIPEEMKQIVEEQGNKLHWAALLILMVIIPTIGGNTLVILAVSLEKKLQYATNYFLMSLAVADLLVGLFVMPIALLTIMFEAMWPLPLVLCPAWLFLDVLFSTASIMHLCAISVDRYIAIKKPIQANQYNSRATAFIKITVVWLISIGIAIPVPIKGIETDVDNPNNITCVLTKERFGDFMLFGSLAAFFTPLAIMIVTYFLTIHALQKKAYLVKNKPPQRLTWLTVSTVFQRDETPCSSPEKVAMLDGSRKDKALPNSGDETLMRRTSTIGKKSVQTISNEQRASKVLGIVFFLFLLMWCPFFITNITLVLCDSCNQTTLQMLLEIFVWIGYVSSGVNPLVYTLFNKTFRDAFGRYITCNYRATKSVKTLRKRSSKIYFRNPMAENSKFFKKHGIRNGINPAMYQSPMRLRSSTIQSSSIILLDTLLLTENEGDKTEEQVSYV
T1 sequence (P50406 whole entry): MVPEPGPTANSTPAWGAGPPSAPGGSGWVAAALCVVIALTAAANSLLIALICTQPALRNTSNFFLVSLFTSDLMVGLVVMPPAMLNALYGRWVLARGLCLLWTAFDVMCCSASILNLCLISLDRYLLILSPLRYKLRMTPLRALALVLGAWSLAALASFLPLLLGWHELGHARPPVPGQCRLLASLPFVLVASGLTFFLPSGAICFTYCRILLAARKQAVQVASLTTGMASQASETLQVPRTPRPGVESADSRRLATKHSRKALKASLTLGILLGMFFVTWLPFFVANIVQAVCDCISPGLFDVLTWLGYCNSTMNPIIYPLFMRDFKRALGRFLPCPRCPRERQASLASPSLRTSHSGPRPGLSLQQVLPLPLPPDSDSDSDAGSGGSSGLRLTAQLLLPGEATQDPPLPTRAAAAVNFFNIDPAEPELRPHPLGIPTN
5-HT2a, sequence (P28223 whole entry): as the sequence (P28223 whole entry) above

CN1CCN(c2cccc3cc(S(=O)(=O)c4cccc(F)c4)cnc23)CC1 [[^11C]GSK-215083]
Ki (5-HT2a): 0.395 nM

CN1CCC(c2cccc3cc(S(=O)(=O)c4ccccn4)cnc23)CC1 [Example 1, 8-(1-methylpiperidin-4-yl)-3-(pyridin-2-ylsulfonyl)quinoline]
Ki [1]: > 1000 nM
Ki (h-5-HT6 receptor): 0.22 nM
Ki (h-5-HT2A receptor): 123 nM
selectivity for 5-HT6 over 5-HT2A (h-5-HT2A receptor): 559 fold
Selectivity for 5-HT6 v. 5-HT2A (h-5-HT2A receptor): 559 x
half-life (Rat microsome stability): 1.73 h
Ki (h-5-HT2B receptor): 144 nM
selectivity for 5-HT6 over 5-HT2B (h-5-HT2B receptor): 654.5 fold
Free [brain] ([2]; 3 min after dose): 21.5 ng/g
Plasma Conc. ([2]; 3 min after dose): 104.5 ng/mL
Free B/P Ratio ([2]; 3 min after dose): 0.21
Free [brain] ([2]; 5 min after dose): 23.1 ng/g
Plasma Conc. ([2]; 5 min after dose): 83.5 ng/mL
Free B/P Ratio ([2]; 5 min after dose): 0.28

CN1CCN(c2cccc3cc(S(=O)(=O)c4cccc(F)c4)cnc23)CC1 [GSK-215083, reference compound]
Ki (Rat 5-HT6): 0.16 nM
Ki (h-5-HT6 receptor): 0.34 nM
Ki (h-5-HT2A receptor): 0.395 nM
selectivity for 5-HT6 over 5-HT2A (h-5-HT2A receptor): 1.16 fold
Selectivity for 5-HT6 v. 5-HT2A (h-5-HT2A receptor): 1.16 x
half-life (Rat microsome stability): 1.04 h

[3H]C([3H])([3H])N1CCC(c2cccc3cc(S(=O)(=O)c4ccccn4)cnc23)CC1 [Example 2, 8-(1-([^3H]methyl)piperidin-4-yl)-3-(pyridin-2-ylsulfonyl)quinoline]
F. Cortex/Cer. (5 min after dose): 0.9
Hippo./Cer. (5 min after dose): 1.06
Striatum/Cer. (5 min after dose): 0.81
F. Cortex/Cer. (40 min after dose): 1.20
Hippo./Cer. (40 min after dose): 1.07
Striatum/Cer. (40 min after dose): 1.31
